Numbers after ± are expanded uncertainties.
Settings: Liquid, Vibrating tube method

CCCCCCN [1-hexanamine]
mass density (293.15 K, 100 kPa): 765 ± 0.3 kg/m3 | mass density (293.15 K, 10000 kPa): 771.2 ± 0.4 kg/m3 | mass density (293.15 K, 20000 kPa): 777.4 ± 0.5 kg/m3 | mass density (293.15 K, 30000 kPa): 783.2 ± 0.6 kg/m3 | mass density (293.15 K, 40000 kPa): 788.6 ± 0.7 kg/m3 | mass density (293.15 K, 50000 kPa): 793.7 ± 0.8 kg/m3 | mass density (293.15 K, 60000 kPa): 798.6 ± 0.9 kg/m3 | mass density (293.15 K, 70000 kPa): 803.1 ± 1 kg/m3 | mass density (293.15 K, 80000 kPa): 807.5 ± 1.1 kg/m3 | mass density (293.15 K, 90000 kPa): 811.8 ± 1.1 kg/m3 | mass density (293.15 K, 100000 kPa): 815.8 ± 1.2 kg/m3 | mass density (293.15 K, 110000 kPa): 819.6 ± 1.3 kg/m3 | mass density (293.15 K, 120000 kPa): 823.3 ± 1.4 kg/m3 | mass density (293.15 K, 130000 kPa): 826.9 ± 1.4 kg/m3 | mass density (293.15 K, 140000 kPa): 830.3 ± 1.5 kg/m3 | mass density (353.15 K, 100 kPa): 712.4 ± 0.3 kg/m3 | mass density (353.15 K, 10000 kPa): 722.4 ± 0.4 kg/m3 | mass density (353.15 K, 20000 kPa): 731.1 ± 0.6 kg/m3 | mass density (353.15 K, 30000 kPa): 739.1 ± 0.7 kg/m3 | mass density (353.15 K, 40000 kPa): 746.2 ± 0.8 kg/m3 | mass density (353.15 K, 50000 kPa): 752.8 ± 0.9 kg/m3 | mass density (353.15 K, 60000 kPa): 758.9 ± 1 kg/m3 | mass density (353.15 K, 70000 kPa): 764.7 ± 1.1 kg/m3 | mass density (353.15 K, 80000 kPa): 770.1 ± 1.2 kg/m3 | mass density (353.15 K, 90000 kPa): 775.2 ± 1.3 kg/m3 | mass density (353.15 K, 100000 kPa): 780.1 ± 1.4 kg/m3 | mass density (353.15 K, 110000 kPa): 784.7 ± 1.5 kg/m3 | mass density (353.15 K, 120000 kPa): 789.2 ± 1.6 kg/m3 | mass density (353.15 K, 130000 kPa): 793.4 ± 1.7 kg/m3 | mass density (353.15 K, 140000 kPa): 797.5 ± 1.8 kg/m3 | mass density (363.15 K, 100 kPa): 703.9 ± 0.3 kg/m3 | mass density (363.15 K, 10000 kPa): 714.4 ± 0.4 kg/m3 | mass density (363.15 K, 20000 kPa): 723.6 ± 0.6 kg/m3 | mass density (363.15 K, 30000 kPa): 731.9 ± 0.7 kg/m3 | mass density (363.15 K, 40000 kPa): 739.3 ± 0.8 kg/m3 | mass density (363.15 K, 50000 kPa): 746.2 ± 0.9 kg/m3 | mass density (363.15 K, 60000 kPa): 752.6 ± 1 kg/m3 | mass density (363.15 K, 70000 kPa): 758.5 ± 1.1 kg/m3 | mass density (363.15 K, 80000 kPa): 764.1 ± 1.2 kg/m3 | mass density (363.15 K, 90000 kPa): 769.4 ± 1.3 kg/m3 | mass density (363.15 K, 100000 kPa): 774.4 ± 1.4 kg/m3 | mass density (363.15 K, 110000 kPa): 779.1 ± 1.5 kg/m3 | mass density (363.15 K, 120000 kPa): 783.6 ± 1.6 kg/m3 | mass density (363.15 K, 130000 kPa): 787.9 ± 1.7 kg/m3 | mass density (363.15 K, 140000 kPa): 792.1 ± 1.8 kg/m3 | mass density (373.15 K, 100 kPa): 694.8 ± 0.3 kg/m3 | mass density (373.15 K, 10000 kPa): 706 ± 0.4 kg/m3 | mass density (373.15 K, 20000 kPa): 716 ± 0.6 kg/m3 | mass density (373.15 K, 30000 kPa): 724.5 ± 0.7 kg/m3 | mass density (373.15 K, 40000 kPa): 732.4 ± 0.8 kg/m3 | mass density (373.15 K, 50000 kPa): 739.5 ± 0.9 kg/m3 | mass density (373.15 K, 60000 kPa): 746.1 ± 1.1 kg/m3 | mass density (373.15 K, 70000 kPa): 752.2 ± 1.2 kg/m3 | mass density (373.15 K, 80000 kPa): 758.1 ± 1.3 kg/m3 | mass density (373.15 K, 90000 kPa): 763.5 ± 1.4 kg/m3 | mass density (373.15 K, 100000 kPa): 768.7 ± 1.5 kg/m3 | mass density (373.15 K, 110000 kPa): 773.5 ± 1.6 kg/m3 | mass density (373.15 K, 120000 kPa): 778.2 ± 1.7 kg/m3 | mass density (373.15 K, 130000 kPa): 782.6 ± 1.8 kg/m3 | mass density (373.15 K, 140000 kPa): 786.9 ± 1.9 kg/m3 | mass density (383.15 K, 100 kPa): 686.1 ± 0.3 kg/m3 | mass density (383.15 K, 10000 kPa): 698.2 ± 0.4 kg/m3 | mass density (383.15 K, 20000 kPa): 708.6 ± 0.6 kg/m3 | mass density (383.15 K, 30000 kPa): 717.6 ± 0.7 kg/m3 | mass density (383.15 K, 40000 kPa): 725.8 ± 0.8 kg/m3 | mass density (383.15 K, 50000 kPa): 733.3 ± 1 kg/m3 | mass density (383.15 K, 60000 kPa): 740.2 ± 1.1 kg/m3 | mass density (383.15 K, 70000 kPa): 746.5 ± 1.2 kg/m3 | mass density (383.15 K, 80000 kPa): 752.5 ± 1.3 kg/m3 | mass density (383.15 K, 90000 kPa): 758.1 ± 1.4 kg/m3 | mass density (383.15 K, 100000 kPa): 763.4 ± 1.5 kg/m3
